Drawing on US20260102383A1, “LPAR1 Inhibitors” (AbbVie Inc., priority 2024, published 2026), this text covers IC50 for 27 compounds.

The structures appear in SMILES notation. Where two headings read alike, the source gives them in different places.

Usually IC50 stands for the concentration that gives 50% inhibition.

In this assay the target is T1, human LPAR1 (Homo sapiens, UniProt Q92633).
T1 construct: host or cells: TangoEDG2-bla U2OS cells
Briefly: Arrestin assay (Arrestin Reporter EDG2-bla U2OS), inhibition of LPA-stimulated signal. The class given is cell-based. The settings on record: TangoEDG2-bla U2OS cells expressing human LPAR1, 0.25 μM LPA. A digest of the protocol: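 IC50 comes from a variable-slope 4-parameter fit of % inhibition, calculated from the beta-lactamase FRET ratio (emission 460/530 nm, excitation 409 nm, 2 h development at RT). Compounds, 10 μM down to 0.00006 μM in 3-fold steps, were given 1 h before 0.25 μM final LPA for 3 h in TangoEDG2-bla U2OS cells.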

The mark [1] stands for this setting: read-out: Arrestin Reporter EDG2-bla U2OS Human Merged IC50.

T1 sequence (Q92633 whole entry): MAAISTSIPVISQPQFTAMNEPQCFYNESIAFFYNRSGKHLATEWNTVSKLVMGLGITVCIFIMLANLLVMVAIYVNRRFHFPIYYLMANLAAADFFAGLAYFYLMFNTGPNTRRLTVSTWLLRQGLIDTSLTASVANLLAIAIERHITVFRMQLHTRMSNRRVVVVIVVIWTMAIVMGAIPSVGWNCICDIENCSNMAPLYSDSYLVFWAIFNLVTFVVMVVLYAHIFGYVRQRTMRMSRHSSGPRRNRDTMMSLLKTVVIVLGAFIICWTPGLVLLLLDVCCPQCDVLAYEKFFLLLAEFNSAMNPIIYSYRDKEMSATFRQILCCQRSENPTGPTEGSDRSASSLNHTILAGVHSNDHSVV

For `CCC(=O)N1CCC(CN2CCC(C(=O)Nc3ccc(Cl)cc3OC(F)F)(n3ncc(OC)c3C(C)C)CC2)(C(=O)O)CC1` [Compound 98, 4-[[4-[[4-chloro-2-(difluoromethoxy)phenyl]carbamoyl]-4-(5-isopropyl-4-methoxy-pyrazol-1-yl)-1-piperidyl]methyl]-1-propanoyl-piperidine-4-carboxylic acid], under setting [1], the IC50 was 0.121 µM.

As for `CC(C)c1c(F)cnn1C1(C(=O)Nc2ccc(Cl)cc2OC(F)F)CCN(C[C@@H](CO)C(=O)O)CC1` [Compound 209, (2S)-2-[[4-[[4-chloro-2-(difluoromethoxy)phenyl]carbamoyl]-4-(4-fluoro-5-isopropyl-pyrazol-1-yl)-1-piperidyl]methyl]-3-hydroxy-propanoic acid], under setting [1], the 50% inhibitory concentration (IC50) is 0.0336 µM.

As for `CC(C)c1ccnn1C1(C(=O)Nc2ccc(Cl)cc2OC(F)F)CCN(C[C@@H](C)C(C)(C)C(=O)O)CC1` [Compound 130], the IC50 under setting [1] stood at 0.0457 µM.

In the case of `COc1ccc(C(CN2CCC(C(=O)Nc3ccc(Cl)cc3OC(F)F)(n3nccc3C(C)C)CC2)C(=O)O)cc1` (stereo not drawn) [Compound 19, 3-[4-[[4-chloro-2-(difluoromethoxy)phenyl]carbamoyl]-4-(5-isopropylpyrazol-1-yl)-1-piperidyl]-2-(4-methoxyphenyl) propanoic acid], the IC50 under setting [1] was 0.00956 µM.

On to `CC(C)c1ccnn1C1(C(=O)Nc2ccc(Cl)cc2OC(F)F)CCN([C@H]2CC[C@H](C(=O)O)OC2)CC1` (single isomer, unassigned) [Compound 192], for which the IC50 under setting [1] stood at 0.0656 µM.

As for `CC(C)c1ccnn1C1(C(=O)Nc2ccc(Cl)cc2OC(F)F)CCN(CC(C(=O)O)C(C)O)CC1` (stereo not drawn) [Compound 203, 2-[[4-[[4-chloro-2-(difluoromethoxy)phenyl]carbamoyl]-4-(5-isopropylpyrazol-1-yl)-1-piperidyl]methyl]-3-hydroxy-butanoic acid], under setting [1], the half-maximal inhibitory concentration (IC50) was found to be 0.0666 µM.

As for `CC(C)c1ccnn1C1(C(=O)Nc2ccc(Cl)cc2OC(F)F)CCN(CC2(C(=O)O)CCN(C(=O)OCc3ccccc3)CC2)CC1` [Compound 8, 1-benzyloxycarbonyl-4-[[4-[[4-chloro-2-(difluoromethoxy)phenyl]carbamoyl]-4-(5-isopropylpyrazol-1-yl)-1-piperidyl]methyl]piperidine-4-carboxylic acid], the IC50 under setting [1] was 0.00331 µM.

Turning to `COCCC(CN1CCC(C(=O)Nc2ccc(Cl)cc2OC(F)F)(n2ncc(F)c2C(C)C)CC1)C(=O)O` (stereo not drawn) [Compound 188, 2-[[4-[[4-chloro-2-(difluoromethoxy)phenyl]carbamoyl]-4-(4-fluoro-5-isopropyl-pyrazol-1-yl)-1-piperidyl]methyl]-4-methoxy-butanoic acid], the half-maximal inhibitory concentration (IC50) under setting [1] turned out to be 0.0383 µM.

Regarding `CC(C)c1ccnn1C1(C(=O)Nc2ccc(Cl)cc2OC(F)F)CCN(C2CC(NC(=O)OC(C)(C)C)(C(=O)O)C2)CC1` (stereo not drawn) [Compound 124, 1-(tert-butoxycarbonylamino)-3-[4-[[4-chloro-2-(difluoromethoxy)phenyl]carbamoyl]-4-(5-isopropylpyrazol-1-yl)-1-piperidyl] cyclobutanecarboxylic acid], the IC50 under setting [1] was 0.0493 µM.

Take `CC(C)c1ccnn1C1(C(=O)Nc2ccc(Cl)cc2OC(F)F)CCN(C[C@@H](C(=O)O)c2cccnc2)CC1` [Compound 26, (2S)-3-[4-[[4-chloro-2-(difluoromethoxy)phenyl]carbamoyl]-4-(5-isopropylpyrazol-1-yl)-1-piperidyl]-2-(3-pyridyl)propanoic acid]: the IC50 under setting [1] was determined as 0.0245 µM.

Regarding `CC(C)c1ccnn1C1(C(=O)Nc2ccc(Cl)cc2OC(F)F)CCN(CC2(C(=O)O)CCC2)CC1` [Compound 45, 1-[[4-[[4-chloro-2-(difluoromethoxy)phenyl]carbamoyl]-4-(5-isopropylpyrazol-1-yl)-1-piperidyl]methyl]cyclobutanecarboxylic acid], under setting [1], the IC50 was 0.0176 µM.

On to `CC(C)c1ccnn1C1(C(=O)Nc2ccc(Cl)cc2OC(F)F)CCN(CC2(C(=O)O)Cc3ccccc3C2)CC1` [Compound 63, 2-[[4-[[4-chloro-2-(difluoromethoxy)phenyl]carbamoyl]-4-(5-isopropylpyrazol-1-yl)-1-piperidyl]methyl]indane-2-carboxylic acid], for which the IC50 under setting [1] came to 0.0045 µM.

In the case of `CC(C)c1ccnn1C1(C(=O)Nc2ccc(Cl)cc2OC(F)F)CCN([C@H]2C[C@](O)(C(=O)O)C2)CC1` [Compound 164, (1s,3s)-3-[4-[[4-chloro-2-(difluoromethoxy)phenyl]carbamoyl]-4-(5-isopropylpyrazol-1-yl)-1-piperidyl]-1-hydroxy-cyclobutanecarboxylic acid], under setting [1], the IC50 came to 0.0724 µM.

Take `COCC[C@@H](CN1CCC(C(=O)Nc2ccc(Cl)cc2OC(F)F)(n2ncc(F)c2C(C)C)CC1)C(=O)O` [Compound 190, (2S)-2-[[4-[[4-chloro-2-(difluoromethoxy)phenyl]carbamoyl]-4-(4-fluoro-5-isopropyl-pyrazol-1-yl)-1-piperidyl]methyl]-4-methoxy-butanoic acid]: the IC50 under setting [1] amounted to 0.0379 µM.

As to `CC(C)c1ccnn1C1(C(=O)Nc2ccc(Cl)cc2OC(F)F)CCN(CC2(C(=O)O)CCN(C(=O)CC3CC3)CC2)CC1` [Compound 48], the IC50 under setting [1] was 0.044 µM.

As for `CC1(C)CCc2cnn(C3(C(=O)Nc4ccc(Cl)cc4OC(F)F)CCN(C[C@@H]4CC[C@H]4C(=O)O)CC3)c21` [Compound 115, (1R.2R)-2-[[4-[[4-chloro-2-(difluoromethoxy)phenyl]carbamoyl]-4-(6,6-dimethyl-4,5-dibydrocyclopenta[c]pyrazol-1-yl)-1-piperidyl]methyl] cyclobutanecarboxylic acid], the half-inhibitory concentration (IC50) under setting [1] is 0.0825 µM.

With `COCC[C@@H](CN1CCC(C(=O)Nc2ccc(Cl)cc2OC(F)F)(n2ncc3c2C(C)(C)OC3)CC1)C(=O)O` [Compound 210, (2S)-2-[[4-[[4-chloro-2-(difluoromethoxy)phenyl]carbamoyl]-4-(6,6-dimethyl-4H-furo[3,4-c]pyrazol-1-yl)-1-piperidyl]methyl]-4-methoxy-butanoic acid], under setting [1], the IC50 came out at 0.123 µM.

In the case of `CC(C)c1ccnn1C1(C(=O)Nc2ccc(Cl)cc2OC(F)F)CCN(C[C@]2(C(=O)O)CC[C@@H](O)CC2)CC1` (single isomer, unassigned) [Compound 95, (1s,4s)-1-[[4-[[4-chloro-2-(difluoromethoxy)phenyl]carbamoyl]-4-(5-isopropylpyrazol-1-yl)-1-piperidyl]methyl]-4-hydroxy-cyclohexanecarboxylic acid], the concentration for half-maximal inhibition (IC50) under setting [1] stood at 0.0117 µM.

Take `CCOC[C@H](CN1CCC(C(=O)Nc2ccc(Cl)cc2OC(F)F)(n2nccc2C(C)C)CC1)C(=O)O` [Compound 228, (2S)-2-[[4-[[4-chloro-2-(difluoromethoxy)phenyl]carbamoyl]-4-(5-isopropylpyrazol-1-yl)-1-piperidyl]methyl]-3-ethoxy-propanoic acid]: the concentration for half-maximal inhibition (IC50) under setting [1] came out at 0.0166 µM.

Turning to `COCC[C@@H](CN1CCC(C(=O)Nc2ccc(Cl)cc2OC(F)F)(n2nccc2C(C)C)CC1)C(=O)O` [Compound 156, (2S)-2-[[4-[[4-chloro-2-(difluoromethoxy)phenyl]carbamoyl]-4-(5-isopropylpyrazol-1-yl)-1-piperidyl]methyl]-4-methoxy-butanoic acid], the IC50 under setting [1] is 0.0497 µM.

For `CC(C)OC(=O)N1CCC(CN2CCC(C(=O)Nc3ccc(Cl)cc3OC(F)F)(n3nccc3C(C)C)CC2)(C(=O)O)CC1` [Compound 88], the IC50 under setting [1] was determined as 0.0133 µM.

In the case of `CC(C)c1ccnn1C1(C(=O)Nc2ccc(Cl)cc2OC(F)F)CCN(CC2(C(=O)O)CCOC2)CC1` (stereo in doubt) [Compound 23, (3S)-3-[[4-[[4-chloro-2-(difluoromethoxy)phenyl]carbamoyl]-4-(5-isopropylpyrazol-1-yl)-1-piperidyl]methyl]tetrahydrofuran-3-carboxylic acid], under setting [1], the concentration for half-maximal inhibition (IC50) worked out at 0.0284 µM.

As to `CCC(=O)N1CC(CN2CCC(C(=O)Nc3ccc(Cl)cc3OC(F)F)(n3nccc3C(C)C)CC2)(C(=O)O)C1` [Compound 64, 3-[[4-[[4-chloro-2-(difluoromethoxy)phenyl]carbamoyl]-4-(5-isopropylpyrazol-1-yl)-1-piperidyl]methyl]-1-propanoyl-azetidine-3-carboxylic acid], the IC50 under setting [1] is 0.0515 µM.

Regarding `CC(C)c1ccnn1C1(C(=O)Nc2ccc(Cl)cc2OC(F)F)CCN(C[C@@H](C(=O)O)N2C[C@@H](C)O[C@H](C)C2)CC1` [Compound 160, (2S)-3-[4-[[4-chloro-2-(difluoromethoxy)phenyl]carbamoyl]-4-(5-isopropylpyrazol-1-yl)-1-piperidyl]-2-[(2R,6R)-2,6-dimethylmorpholin-4-yl]propanoic acid], the IC50 under setting [1] is 0.0869 µM.

As to `CC(C)c1ccnn1C1(C(=O)Nc2ccc(Cl)cc2OC(F)F)CCN([C@H]2C[C@H](C(=O)O)C2)CC1` [Compound 62, (1r,3r)-3-[4-[[4-chloro-2-(difluoromethoxy)phenyl]carbamoyl]-4-(5-isopropylpyrazol-1-yl)-1-piperidyl]cyclobutanecarboxylic acid], the IC50 (read-out: Arrestin Reporter EDG2-bla U2OS Human IC50) is 0.0515 µM.

As for `CC(C)c1c(F)cnn1C1(C(=O)Nc2ccc(Cl)cc2OC(F)F)CCN(C[C@H](CO)C(=O)O)CC1` [Compound 213, (2R)-2-[[4-[[4-chloro-2-(difluoromethoxy)phenyl]carbamoyl]-4-(4-fluoro-5-isopropyl-pyrazol-1-yl)-1-piperidyl]methyl]-3-hydroxy-propanoic acid], under setting [1], the 50% inhibitory concentration (IC50) worked out at 0.0222 µM.

In the case of `CC(C)c1ccnn1C1(C(=O)Nc2ccc(Cl)cc2OC(F)F)CCN(C[C@@H](C(=O)O)[C@@H](C)O)CC1` [Compound 222, (2R,3R)-2-[[4-[[4-chloro-2-(difluoromethoxy)phenyl]carbamoyl]-4-(5-isopropylpyrazol-1-yl)-1-piperidyl]methyl]-3-hydroxy-butanoic acid], the IC50 under setting [1] stood at 0.0479 µM.
